Patent US9562031B1, “Phenethyldihydrobenzodioxolones and methods of use” (Sequoia Sciences, Inc., priority 2015, dated 2017)
Read-outs that look alike come from different tables or passages of the source.

Columns and labels:
[1] = system: NCI-H460 (large cell lung carcinoma) cells; experiment: antiproliferation assay (72 h, CELLTITER 96), NCI-H460; format: cell-based, human; conditions: Homo sapiens, read-out: NCI-H460 IC50
Procedure: (§1) All of the compounds shown in Table 3-Table 8 below were prepared synthetically as described in EXAMPLE I. The compounds were tested for their ability to inhibit the proliferation of human cancer cells in vitro as described in the following paragraph. Table 3-Table 8 list the IC50 values in the M14 and NCI-H460 human cancer cell lines. IC50 is defined as the concentration of compound necessary to achieve 50% of the maximum growth inhibition.
(§2) For the antiproliferation assay, NCI-H460 (large cell lung carcinoma) or M14 (amelanotic melanoma) cells were grown in RPMI-1640 with 10% FBS supplemented with L-glutamine and HEPES. Cells were seeded into 96-well plates at 5×10^2 to 5×10^4 cells/well and allowed to adhere overnight; the medium was then removed. A stock solution of test compound in DMSO was diluted in medium to generate a series of working solutions. Aliquots (100 μl) of the working solutions were then added to the appropriate test wells to expose cells to the final concentrations of compound in a total volume of 100 μl. Seven different concentrations were tested, with 2-5 wells per concentration. Camptothecin was used as a positive control; wells containing vehicle without compound were used as negative controls. Plates were kept for 72 h in a 37° C., 5% CO2 incubator. After incubation, viable cells were detected with the CELLTITER 96 AQueous Non-Radioactive Cell Proliferation Assay (Promega), and IC50 values were determined using GraphPad Prism 5 software.

[2] = system: M14 (amelanotic melanoma) cells; experiment: antiproliferation assay (72 h, CELLTITER 96), M14; format: cell-based, human; conditions: Homo sapiens
Procedure: as §1, §2

IC50 ([1]; NCI-H460, Table 4) [nM]	IC50 ([2]; Table 4) [nM]	IC50 ([1]; NCI-H460, Table 5) [nM]	IC50 ([2]; Table 5) [nM]	SMILES	further results
				C=CC[C@H]1C[C@]2([C@H](C)Cc3ccc(OC)c(F)c3F)OCOC2=CC1=O [Compound 22, (6S,7aR)-6-allyl-7a-((R)-1-(2,3-difluoro-4-methoxyphenyl)propan-2-yl)-7,7a-dihydrobenzo[d][1,3]dioxol-5(6H)-one]	IC50 ([1]; NCI-H460, Table 3): 2400 nM; IC50 ([2]; Table 3): 900 nM
				C=CC[C@H]1C[C@]2([C@H](C)Cc3c(F)cc(OC)cc3F)OCOC2=CC1=O [Compound 23, (6S,7aR)-6-allyl-7a-((R)-1-(2,6-difluoro-4-methoxyphenyl)propan-2-yl)-7,7a-dihydrobenzo[d][1,3]dioxol-5(6H)-one]	IC50 ([1]; NCI-H460, Table 3): 720 nM; IC50 ([2]; Table 3): 270 nM
320	110			C=CC[C@H]1C[C@]2([C@H](C)Cc3ccc(OC)c(OC)c3)OCOC2=CC1=O [Compound 24, (6S,7aR)-6-allyl-7a-((R)-1-(3,4-dimethoxyphenyl)propan-2-yl)-7,7a-dihydrobenzo[d][1,3]dioxol-5(6H)-one]	
88	61			C=CC[C@H]1C[C@]2([C@@H](C)Cc3ccc(OC)cc3)OCOC2=CC1=O [Compound 25, (6S,7aR)-6-allyl-7a-((S)-1-(4-methoxyphenyl)propan-2-yl)-7,7a-dihydrobenzo[d][1,3]dioxol-5(6H)-one]	
630	410			C=CC[C@H]1C[C@]2([C@@H](C)Cc3ccc(OC)c(C)c3)OCOC2=CC1=O [Compound 27, (6S,7aR)-6-allyl-7a-((S)-1-(4-methoxy-3-methylphenyl)propan-2-yl)-7,7a-dihydrobenzo[d][1,3]dioxol-5(6H)-one]	
4200	10000			C=CC[C@H]1C[C@]2([C@H](C)Cc3ccc(OC)c(CO)c3)OCOC2=CC1=O [Compound 28, (6S,7aR)-6-allyl-7a-((R)-1-(3-(hydroxymethyl)-4-methoxyphenyl)propan-2-yl)-7,7a-dihydrobenzo[d][1,3]dioxol-5(6H)-one]	
1100	1400			C=CC[C@H]1C[C@]2([C@@H](C)Cc3ccc(OC)c(C(=O)NC)c3)OCOC2=CC1=O [Compound 30, 5-((S)-2-((3aR,5S)-5-allyl-6-oxo-3a,4,5,6-tetrahydrobenzo[d][1,3]dioxol-3a-yl)propyl)-2-methoxy-N-methylbenzamide]	
340	180			C=CC[C@H]1C[C@]2([C@@H](C)Cc3ccc(OC)c(C#N)c3)OCOC2=CC1=O [Compound 31, 5-((S)-2-((3aR,5S)-5-allyl-6-oxo-3a,4,5,6-tetrahydrobenzo[d][1,3]dioxol-3a-yl)propyl)-2-methoxybenzonitrile]	
110	16			C=CC[C@H]1C[C@]2(C(C)Cc3ccc(OC)c(OC(C)=O)c3)OCOC2=CC1=O (stereo partly drawn) [Compound 33, 5-(2-((3aR,5S)-5-allyl-6-oxo-3a,4,5,6-tetrahydrobenzo[d][1,3]dioxol-3a-yl)propyl)-2-methoxyphenyl acetate]	
180	49			C=CC[C@H]1C[C@]2(C(C)Cc3ccc(OC)c(N)c3)OCOC2=CC1=O (stereo partly drawn) [Compound 34, (6S,7aR)-6-allyl-7a-(1-(3-amino-4-methoxyphenyl)propan-2-yl)-7,7a-dihydrobenzo[d][1,3]dioxol-5(6H)-one]	
310	85			C=CC[C@H]1C[C@]2([C@@H](C)Cc3ccc(OC)c(NC(C)=O)c3)OCOC2=CC1=O [Compound 35, N-(5-((S)-2-((3aR,5S)-5-allyl-6-oxo-3a,4,5,6-tetrahydrobenzo[d][1,3]dioxol-3a-yl)propyl)-2-methoxyphenyl)acetamide]	
1900	720			C=CCNc1cc(CC(C)[C@]23C[C@H](CC=C)C(=O)C=C2OCO3)ccc1OC (stereo partly drawn) [Compound 36, (6S,7aR)-6-allyl-7a-(1-(3-(allylamino)-4-methoxyphenyl)propan-2-yl)-7,7a-dihydrobenzo[d][1,3]dioxol-5(6H)-one]	
640	240			C=CC[C@H]1C[C@]2([C@@H](C)Cc3ccc(OC)c(Cl)c3)OCOC2=CC1=O [Compound 38, (6S,7aR)-6-allyl-7a-((S)-1-(3-chloro-4-methoxyphenyl)propan-2-yl)-7,7a-dihydrobenzo[d][1,3]dioxol-5(6H)-one]	
420	130			C=CC[C@H]1C[C@]2([C@H](C)Cc3ccc(OC)c(Cl)c3)OCOC2=CC1=O [Compound 39, (6S,7aR)-6-allyl-7a-((R)-1-(3-chloro-4-methoxyphenyl)propan-2-yl)-7,7a-dihydrobenzo[d][1,3]dioxol-5(6H)-one]	
		2000	650	C=CC[C@H]1C[C@]2(C(C)Cc3ccc(OCC)cc3)OCOC2=CC1=O (stereo partly drawn) [Compound 40, (6S,7aR)-6-allyl-7a-(1-(4-ethoxyphenyl)propan-2-yl)-7,7a-dihydrobenzo[d][1,3]dioxol-5(6H)-one]	
		3800	> 20000	C=CC[C@H]1C[C@]2([C@@H](C)Cc3ccc(OC(F)(F)F)cc3)OCOC2=CC1=O [Compound 41, (6S,7aR)-6-allyl-7a-((S)-1-(4-(trifluoromethoxy)phenyl)propan-2-yl)-7,7a-dihydrobenzo[d][1,3]dioxol-5(6H)-one]	
		2500	810	C=CC[C@H]1C[C@]2([C@@H](C)Cc3ccc(N)c(F)c3)OCOC2=CC1=O [Compound 42, (6S,7aR)-6-allyl-7a-((S)-1-(4-amino-3-fluorophenyl)propan-2-yl)-7,7a-dihydrobenzo[d][1,3]dioxol-5(6H)-one]	
		300	64	C=CC[C@H]1C[C@]2([C@H](C)Cc3ccc(NC)c(F)c3)OCOC2=CC1=O [Compound 43, (6S,7aR)-6-allyl-7a-((R)-1-(3-fluoro-4-(methylamino)phenyl)propan-2-yl)-7,7a-dihydrobenzo[d][1,3]dioxol-5(6H)-one]	
		1400	640	C=CC[C@H]1C[C@]2([C@H](C)Cc3ccc(N(C)C)c(F)c3)OCOC2=CC1=O [Compound 46, (6S,7aR)-6-allyl-7a-((R)-1-(4-(dimethylamino)-3-fluorophenyl)propan-2-yl)-7,7a-dihydrobenzo[d][1,3]dioxol-5(6H)-one]	
		330	75	C=CC[C@H]1C[C@]2([C@H](C)Cc3cc(F)c(N(C)C)cc3F)OCOC2=CC1=O [Compound 47, (6S,7aR)-6-allyl-7a-((R)-1-(4-(dimethylamino)-2,5-difluorophenyl)propan-2-yl)-7,7a-dihydrobenzo[d][1,3]dioxol-5(6H)-one]	
		330	70	C=CC[C@H]1C[C@]2([C@@H](C)Cc3cc(F)c(N(C)C)cc3F)OCOC2=CC1=O [Compound 48, (6S,7aR)-6-allyl-7a-((S)-1-(4-(dimethylamino)-2,5-difluorophenyl)propan-2-yl)-7,7a-dihydrobenzo[d][1,3]dioxol-5(6H)-one]	
				C=CC[C@H]1C[C@]2([C@@H](C)Cc3ccccc3)OCOC2=CC1=O [Compound 49]	IC50 ([1]; NCI-H460, Table 6): 9700 nM; IC50 ([2]; Table 6): 5100 nM
				C=CC[C@H]1C[C@]2([C@@H](C)Cc3cccc(OC)c3)OCOC2=CC1=O [Compound 50, (6S,7aR)-6-allyl-7a-((S)-1-(3-methoxyphenyl)propan-2-yl)-7,7a-dihydrobenzo[d][1,3]dioxol-5(6H)-one]	IC50 ([1]; NCI-H460, Table 6): 10600 nM; IC50 ([2]; Table 6): 8800 nM
